# Reference: patent publication US4056674A, “Derivatives of 3-deazaguanine” (priority 1975, dated 1977)
# Read-outs that look alike come from different tables or passages of the source.
# Columns and labels:
# [1] = system: Salmonella; test: In vitro antibacterial, broth dilution assay, Salmonella; assay type: cell-based; details: clinical isolates, 24 hr at 35°
# Procedure: (§1) In this example compounds 7 and 30 were tested to determine their in vitro antibacterial activity. Clinical isolates of pathogens were used for this example. In vitro sensitivity of these organisms were quantitatively determined by broth dilution assay. Serial dilutions were prepared in chemically defined medium in a range from 100 to 0.01 μg/ml. The minimal Inhibitory Concentration (MIC) was recorded as the highest dilution of compound which prevented visible growth of the pathogen following 24 hr incubation at 35°.
# [2] = system: Escherichis; test: In vitro antibacterial, broth dilution assay, Escherichia; assay type: cell-based; details: Escherichis; clinical isolates; 24 hr at 35°; read-out: Average MIC
# Procedure: as §1
# [3] = system: Pseudomonas; test: In vitro antibacterial, broth dilution assay, Pseudomonas; assay type: cell-based; details: clinical isolates, 24 hr at 35°
# Procedure: as §1
# [4] = system: Shigella; test: In vitro antibacterial, broth dilution assay, Shigella; assay type: cell-based; details: clinical isolates, 24 hr at 35°
# Procedure: as §1
# [5] = system: Serratia; test: In vitro antibacterial, broth dilution assay, Serratia; assay type: cell-based; details: clinical isolates, 24 hr at 35°
# Procedure: as §1
# [6] = system: Proteus; test: In vitro antibacterial, broth dilution assay, Proteus; assay type: cell-based; details: Proteus; clinical isolates; 24 hr at 35°; read-out: Average MIC
# Procedure: as §1
# [7] = system: Citrobacter; test: In vitro antibacterial, broth dilution assay, Citrobacter; assay type: cell-based; details: clinical isolates, 24 hr at 35°
# Procedure: as §1
# [8] = system: Klebsiella; test: In vitro antibacterial, broth dilution assay, Klebsiella; assay type: cell-based; details: clinical isolates, 24 hr at 35°
# Procedure: as §1
# [9] = system: Enterobacter; test: In vitro antibacterial, broth dilution assay, Enterobacter; assay type: cell-based; details: clinical isolates, 24 hr at 35°
# Procedure: as §1
# [10] = system: Providence; test: In vitro antibacterial, broth dilution assay, Providence; assay type: cell-based; details: clinical isolates, 24 hr at 35°
# Procedure: as §1
# [11] = system: Escherichia Coli; test: In vivo antibacterial activity, survival of mice after intraperitoneal challenge with Escherichia coli 138; design: species or system white mice (ICR, COX 17 to 20 g); details: 7 days
# Procedure: In this example compounds 7 and 23 were tested along with, as a comparison, the known antibiotic Gentamycin, to determine their in vivo antibacterial activity. Experimental infections were produced in groups of 20 white mice (ICR, COX 17 to 20 g).
# *Ec 138: Tetracycline and Streptomycin
# **The LD50 is the challenge that killed 50% of the infected mice; th
# LD50 values for the pathogen were calculated by the method of Probit
# [12] = system: virus; details: background statement; cited from earlier work
# [13] = system: viruses causing respiratory diseases such as influenza in man; details: background statement; cited from earlier work
# [14] = system: herpes simplex virus, type 1; test: In vitro antiviral, inhibition of virus-induced CPE, HSV/1; assay type: cell-based; details: KB or RK-13 cells, VR >0.5 significant, <0.5 slight antiviral activity
# [15] = system: herpes simplex virus, type 2; test: In vitro antiviral, inhibition of virus-induced CPE, HSV/2; assay type: cell-based; details: KB or RK-13 cells, VR >0.5 significant, <0.5 slight antiviral activity
# [16] = system: rhinovirus, type 13; test: In vitro antiviral, inhibition of virus-induced CPE, RV/13; assay type: cell-based; details: KB or RK-13 cells, VR >0.5 significant, <0.5 slight antiviral activity
# [17] = system: vaccinia virus; assay type: cell-based; details: VV; KB or RK-13 cells; VR >0.5 significant, <0.5 slight antiviral activity
# [18] = system: Parainfluenza virus, type 3; test: In vitro antiviral, inhibition of virus-induced CPE, PIV/3; assay type: cell-based
# [19] = system: parainfluenza virus, type 1; test: In vitro antiviral, inhibition of virus-induced CPE, PIV/1; assay type: cell-based
# [20] = system: rhinovirus, type 1A; test: In vitro antiviral, inhibition of virus-induced CPE, RV/1A; assay type: cell-based; details: KB or RK-13 cells, VR >0.5 significant, <0.5 slight antiviral activity
# [21] = system: adenovirus, type 3; test: In vitro antiviral, inhibition of virus-induced cytopathogenic effect (CPE), AV/3; assay type: cell-based; details: KB or RK-13 cells, VR >0.5 significant, <0.5 slight antiviral activity
# [22] = system: rhinovirus, type 56; test: In vitro antiviral, inhibition of virus-induced CPE, RV/56; assay type: cell-based; details: KB or RK-13 cells, VR >0.5 significant, <0.5 slight antiviral activity
# [23] = system: influenza virus, type Ao; test: In vitro antiviral, inhibition of virus-induced CPE, IV/Ao; assay type: cell-based; details: KB or RK-13 cells, VR >0.5 significant, <0.5 slight antiviral activity
# [24] = system: myxoma virus; test: In vitro antiviral, inhibition of virus-induced CPE, MV; assay type: cell-based; details: KB or RK-13 cells, VR >0.5 significant, <0.5 slight antiviral activity
# Procedure: In this example, compounds 3, 4, 13, 16, 20, 22, 29 and 30 were tested to determine their in vitro antiviral efficacy, using the inhibition virus-induced cytopathogenic effect (CPE) method of Sidwell, et al. (Applied Microbiology 22:797-801, 1971). Briefly, the CPE procedure includes the suspension of the antiviral agent in a cell culture medium consisting of vitamins, amino acids, serum, buffer, penicillin, streptomycin and indicator dye in water. The virus suspended in the cell culture medium was added to an established monolayer of KB cells or RK-13 cells, and an equal volume of the antiviral agent was then added within 15 minutes. The infected treated cells were graded following microscopic examination. Controls for each experiment include cell controls cells and cell culture medium only), virus controls (cell and virus cell culture medium) and toxicity controls (cells and chemical and cell culture medium).
# The virus rating (VR) system of Sidwell et al., described in Applied Microbiology, supra, was used to evaluate the degree of significance of CPE inhibition.
# [25] = system: rhinovirus, type 8; test: In vitro antiviral, inhibition of virus-induced CPE, RV/8; assay type: cell-based; details: KB or RK-13 cells, VR >0.5 significant, <0.5 slight antiviral activity
# [26] = system: vesicular stomatitis virus; assay type: cell-based; details: VSV; KB or RK-13 cells; VR >0.5 significant, <0.5 slight antiviral activity
# [27] = system: pseudorabies virus; assay type: cell-based; details: PRV; KB or RK-13 cells; VR >0.5 significant, <0.5 slight antiviral activity
# [28] = system: human cytomegalovirus; test: In vitro antiviral, inhibition of virus-induced CPE, HCMV; assay type: cell-based; details: KB or RK-13 cells, VR >0.5 significant, <0.5 slight antiviral activity
# [29] = system: RV/2: rhinovirus, type 1; test: In vitro antiviral, inhibition of virus-induced CPE, RV/2; assay type: cell-based; details: KB or RK-13 cells, VR >0.5 significant, <0.5 slight antiviral activity
# [30] = system: leukemia L1210; test: Activity against leukemia L1210 in BDF1 female mice; assay type: in vivo; details: 40 mg/kg i.p., qd [1-9]
# Procedure: In this example compound 30 was tested for antitumor activity in mice. […] A 10^-5 M concentration of compound 30 caused 50% inhibition of the incorporation of ^3 H-thymidine and ^3 H-uridine into the acidinsoluble fraction of L1210 cells in tissue culture. […] Ara C (cytosine arabinoside) was included as a standard.
# All animals were inoculated (i.p) with 10^5 leukemic cells. Treatment
# was started 24 hours after transplant. Figures in parenthesis denote 21
compound,measurement,setting,value
"Nc1cc2ncn([C@@H]3O[C@H](CO)[C@@H](O)[C@H]3O)c2c(=O)[nH]1 [Compound 7, 6-amino-3-β-D-ribofuranosylimidazo[4,5-c]pyridin-4(5H)one]",MIC,[1],5 µg/mL
same,MIC,[2],0.5 µg/mL
same,MIC,[3],100 µg/mL
same,MIC,[4],100 µg/mL
same,MIC,[5],5 µg/mL
same,MIC,[6],10 µg/mL
same,MIC,[7],5 µg/mL
same,MIC,[8],8 µg/mL
same,MIC,[9],10 µg/mL
same,MIC,[10],15 µg/mL
same,% survival,"[11]; challenge 1 LD50, 50 mg/kg × 2, oral",100%
same,% survival,"[11]; challenge 10 LD50's, 50 mg/kg × 2, oral",100%
same,% survival,"[11]; challenge 100 LD50's, 50 mg/kg × 2, oral",100%
same,% survival,"[11]; challenge 1000 LD50's, 50 mg/kg × 2, oral",90%
same,% survival,"[11]; challenge 10,000 LD50's, 50 mg/kg × 2, oral",75%
"NC(=O)c1nc[nH]n1 [1,2,4-triazole-3-carboxamide]",antiviral activity,[12],significant antiviral activity
"NC(=O)c1ncn([C@@H]2O[C@H](CO)[C@@H](O)[C@H]2O)n1 [1-β-D-ribofuranosyl-1,2,4-triazole-3-carboxamide]",activity against respiratory disease viruses,[13],active against these respiratory disease viruses
"Nc1cc2ncn([C@@H]3O[C@H](COP(=O)(O)O)[C@@H](O)[C@H]3O)c2c(=O)[nH]1 [Compound 23, 6-Amino-3-β-D-ribofuranosylimidazo[4,5-c]pyridin-4(5H)-one-5'-phosphate]",% survival,"[11]; challenge 1000 LD50's, 100 mg/kg × 1, oral",100%
"N#CCc1c(C(N)=O)ncn1[C@@H]1O[C@H](CO)[C@@H](O)[C@H]1O [Compound 3, 5-Cyanomethyl-1-β-D-ribofuranosylimidazole-4-carboxamide]",Virus rating (VR),[14],0.6
same,Virus rating (VR),[15],1.3
"NC(=S)c1nc[nH]n1 [1,2,4-triazole-3thiocarboxamide]",antiviral activity,[12],significant antiviral activity
"Nc1cc2c(ncn2[C@@H]2O[C@H](COP(=O)(O)O)[C@@H](O)[C@H]2O)c(=O)[nH]1 [Compound 22, 6-Amino-1-β-D-ribofuranosylimidazo[4,5-c]pyridin-4(5H)-one 5'-phosphate]",Virus rating (VR),[16],0.9
same,Virus rating (VR),[17],0.7
same,Virus rating (VR),[14],0.9
same,Virus rating (VR),[15],1.0
same,Virus rating (VR),[18],0.8
same,Virus rating (VR),[19],0.3
"Nc1cc2ncn(C3CCCCO3)c2c(=O)[nH]1 (stereo not drawn) [Compound 13, 6-Amino-3-(tetrahydropyran-2-yl)imidazo[4,5-c]pyridin-4(5H)-one]",Virus rating (VR),[14],0.8
Gentamycin [reference compound],% survival,"[11]; challenge 1 LD50, 1 mg/kg × 2, SC",100%
same,% survival,"[11]; challenge 10 LD50's, 1 mg/kg × 2, SC",100%
same,% survival,"[11]; challenge 100 LD50's, 1 mg/kg × 2, SC",90%
same,% survival,"[11]; challenge 1000 LD50's, 1 mg/kg × 2, SC",80%
same,% survival,"[11]; challenge 10,000 LD50's, 1 mg/kg × 2, SC",60%
"Nc1ncnc2c1ncn2[C@@H]1O[C@H](CO)[C@@H](O)[C@@H]1O [ara-A, 9-β-D-arabino furanosyladenine]",activity against respiratory disease viruses,[13],only active against a limited spectrum of viruses which does not include those causing respiratory diseases
"N#CCc1c(C(N)=O)ncn1[C@@H]1O[C@H](COP(=O)(O)O)[C@@H](O)[C@H]1O [Compound 20, 5-Cyanomethyl-1-β-D-ribofuranosylimidazole-4-carboxamide 5'-phosphate]",Virus rating (VR),[17],0.3
same,Virus rating (VR),[14],0.8
same,Virus rating (VR),[15],0.5
"Nc1cc2c(ncn2[C@@H]2O[C@H](CO)[C@@H](O)[C@H]2O)c(=O)[nH]1 [Compound 4, 6-Amino-1-β-D-ribofuranosylimidazo[4,5-c]pyridin-4(5H)-one]",Virus rating (VR),[20],0.1
same,Virus rating (VR),[16],1.0
same,Virus rating (VR),[21],0.8
same,Virus rating (VR),[22],0.7
same,Virus rating (VR),[23],0.1
same,Virus rating (VR),[24],1.0
same,Virus rating (VR),[17],0.6
same,Virus rating (VR),[14],0.9
same,Virus rating (VR),[25],1.2
same,Virus rating (VR),[26],1.1
same,Virus rating (VR),[27],0.3
same,Virus rating (VR),[28],0.5
same,Virus rating (VR),[29],1.2
same,Virus rating (VR),"[18]; PIV/3, KB or RK-13 cells, VR >0.5 significant, <0.5 slight antiviral activity",0.6
same,Virus rating (VR),"[19]; PIV/1, KB or RK-13 cells, VR >0.5 significant, <0.5 slight antiviral activity",0.6
"O=c1[nH]c(=O)n([C@H]2C[C@H](O)[C@@H](CO)O2)cc1I [IDU, 5-iodo-2' -deoxyuridine]",activity against respiratory disease viruses,[13],only active against a limited spectrum of viruses which does not include those causing respiratory diseases
"C[C@H]1O[C@@H](n2cnc3c(=O)[nH]c(N)cc32)[C@H](O)[C@@H]1O [Compound 16, 6-Amino-1-(5-deoxy-β-D-ribofuranosyl)imidazo[4,5-c]pyridine-4(5H)-one]",Virus rating (VR),[14],0.9
"N#CCc1[nH]cnc1C(N)=O [Compound 29, 4(5)-Cyanomethylimidazole-5(4)-carboxamide]",Virus rating (VR),[16],0.6
same,Virus rating (VR),[21],0.8
same,Virus rating (VR),[14],0.9
same,Virus rating (VR),[18],0.5
"Nc1ccn([C@@H]2O[C@H](CO)[C@@H](O)[C@@H]2O)c(=O)n1 [Ara C, 1-β-D-arabinofuranosylcytosine, reference compound]",activity against respiratory disease viruses,[13],only active against a limited spectrum of viruses which does not include those causing respiratory diseases
same,21 day survivors,[30],0/6
same,Average Mean Survival,[30],17.33 days
same,T/C,[30],2.11
same,ΔWt.,[30],-0.2 g
